Measured values taken from patent publication US8361999B2, “Methods of treating cholesterol gallstone disease with ezetimibe” (Pontificia Universidad Catolica de Chile, priority 2005, dated 2013).

Legend:
Type in all cases: in vivo, mouse
[1] = test system: MRP2; assay: Hepatic expression of MRP2 (Northern blot); details: 14 days
Method: (§1) Expression of Specific Bile Salts (Ntcp, Bsep), Phospholipid (MDR2) and Organic Anions or Glutathione (MRP2); And Determination of Glutathione Synthesis (Gluthamylcystein-Synthetase (GGCS)).
(§2) Total RNA extraction. 80 mg hepatic tissue frozen at −70° C. was homogenized in 800 μl solution D, following the method described by Chomczynski and Sacchi, 1987. The RNA concentration was calculated by measuring the absorbance at 260 nm and its purity by the ratio OD260/OD280. The samples are stored at −20° C. RNA electrophoresis. 10 μg of total RNA are dried under gaseous N2 or vacuum for 10 minutes. 10 μl loading buffer were added, and the samples heated to 65° C., loaded into a denaturing 1% agarose/formaldehyde gel and run at 100 volts for 4 hours. The RNA integrity was determined by the clear visualization of the 28 S and 18 S ribosomal RNAs (FIG. 8).
(§3) Northern Blot and hybridization with radioactive probes. The gel with the RNA samples is washed with DEPC H2O for 10 minutes to eliminate formaldehyde and then incubated for 20 minutes with 50 mM NaOH for partial RNA hydrolysis. After a 10 minute wash with DEPC H2O to eliminate NaOH, the samples are transferred from the gel to Nylon membranes (Hybond-N, Amersham Pharmacia) over night by a capillary system. […]
(§4) Probe labeling by “de novo synthesis”. […] The percentage of incorporated radioactivity into the probe was always over 60%. […]

[2] = test system: C57BL/6J mice; assay: Lipid content and cholesterol saturation index in gallbladder bile; details: for Gallbladder Bile Bile salts / Gallbladder Bile Cholesterol / Gallbladder Bile Colesterol Saturation Index / Gallbladder Bile Phospholipids: 14 days
Method: Surgery and sample harvest. The groups were maintained for 14 days (protocol #1) or 30 days (protocol #2) in the different experimental conditions. During the last three days of the protocols, 24 h depositions were collected from the different groups (pool) to determine the fecal excretion of neutral sterols (cholesterol) and acidic sterols (bile salts). At the end of the time established in the protocols, the mice were anesthetized (between 08:00-10:00 AM) with an intraperitoneal pentobarbital injection in doses of 4.5 mg per 100 gr body weight (Amigo et al., 2000) and subjected to surgery. Standardized surgery consists in an extended […] and visualization of abdominal organs, including liver, biliary tree and gallbladder. First, we performed a resection of the gallbladder (cholecystectomy), with the cystic duct previously ligated (Amigo et al., 2002; Amigo et al., 2000; Amigo et al., 2003b). The gallbladder is removed and visually inspected to determine the presence of gallstones. Then, the gallbladder bile is extracted to analyze the presence of cholesterol crystals in the fresh samples under the microscope with polarized light (20×). Aliquots are stored at −20° C. for subsequent chemical analysis. Afterwards, the common biliary duct is cannulated (biliary fistula) with a P-10 polyethylene cannula to collect bile during 15 minutes, determine bile flow by gravimetry (1 g bile=1 ml; bile flow is expressed as μl/min/g of mouse liver) and for posterior chemical analysis of biliary lipids and glutathione, as specified later. […] Then, the liver is removed, weighted, frozen in liquid nitrogen and stored at −80 for subsequent analyses. The plasma is separated by centrifugation at 1,500 rpm and stored at −80° C. for later analysis. The animal protocols were approved by our institution Ethics Committee and the animals were treated according to international care rules for experimental animals.
Intestinal absorption of cholesterol and bile salts. The capacity of Ezetimibe to inhibit cholesterol and bile salt absorption was indirectly determined by quantification of neutral sterols (cholesterol) and acidic sterols (bile acids) present in the feces collected on day 12, 13 and 14 of the experiment (three days). In order to determine cholesterol (neutral sterols) fecal excretion, the feces were dried at 50° C. for three days and then weighted to obtain an average of fecal excretion per day (in grams). The feces were homogenized in a mortar, and 5 ml 2N NaOH:methanol, 1:1 are added per 100 mg (dry weight) aliquots of the homogenate. The sample is vortex and incubated at 60° C. for 1 h for saponification, then it is cooled and 5 ml petroleum ether is added followed by vigorous agitation to obtain the separation of the hydrophobic and hydrophilic phases. The samples are then centrifuged at 1,000 rpm for 10 minutes and the hydrophobic phase (upper layer) is recovered. Second and third extractions are performed by adding 5 ml petroleum ether to the hydrophilic phase. The hydrophobic phases are dried under gaseous nitrogen and the lipids are resuspended in 1 ml chloroform. 50 μl aliquots, in duplicate, are dried at room temperature, and total cholesterol is quantified according to the enzymatic method described above. The values obtained are expressed as μmoles cholesterol/day/100 g of mouse (Miettinen et al., 1965). In order to determine fecal excretion of bile acids the mice feces were collected during three days (days 12-14), dried at 50° C. for one week and weighted. The feces are then homogenized in a mortar; (^14C) cholic acid, 200,000 cpm is added to 1 g of the homogenate to determine the degree of recovery. The samples are then mixed with NaBr, NaOH and HCl, dissolved in ethanol and incubated at 120° C. for 8 h in a reflux system. The hydrolyzed fecal samples are resuspended in NaOH and dried under gaseous N2. The pellet obtained is resuspended in ethanol and run through Sep-Pak columns to eliminate all bile salts contaminants. […]

[3] = test system: C57BL/6J mice; assay: Glutathione biliary secretion; details: lithogenic diet (FIG. 4)
Method: Surgery and sample harvest. The groups were maintained for 14 days (protocol #1) or 30 days (protocol #2) in the different experimental conditions. During the last three days of the protocols, 24 h depositions were collected from the different groups (pool) to determine the fecal excretion of neutral sterols (cholesterol) and acidic sterols (bile salts). At the end of the time established in the protocols, the mice were anesthetized (between 08:00-10:00 AM) with an intraperitoneal pentobarbital injection in doses of 4.5 mg per 100 gr body weight (Amigo et al., 2000) and subjected to surgery. Standardized surgery consists in an extended […] and visualization of abdominal organs, including liver, biliary tree and gallbladder. […] Afterwards, the common biliary duct is cannulated (biliary fistula) with a P-10 polyethylene cannula to collect bile during 15 minutes, determine bile flow by gravimetry (1 g bile=1 ml; bile flow is expressed as μl/min/g of mouse liver) and for posterior chemical analysis of biliary lipids and glutathione, as specified later. […]
Biliary gluthation. Biliary gluthation was quantified from the bile obtained by cannulation of the biliary duct for a 5 minute period with tubes containing 5 μl sulfosalicylic acid. […] The reaction mix was incubated at 37° C., measured at 412 nm, and an enzymatic kinetic curve was obtained using different […] concentrations as standard. […]

[4] = test system: GGCS; assay: Hepatic expression of gamma-gluthamylcystein-synthetase (Northern blot); details: 14 days
Method: as §1, §2, §3, §4

With `O=C1[C@H](CC[C@H](O)c2ccc(F)cc2)[C@@H](c2ccc(O)cc2)N1c1ccc(F)cc1` [Ezetimibe, (−)-1-(4-fluorophenyl)-(3R)-[3-(4-fluorophenyl)-(.S)-hydroxypropyl]-(4S)-(4-hydroxyphenyl)-2-azetidinone] the “hepatic expression of MRP2, lithogenic diet plus Ezetimibe vs lithogenic diet” value [1] was “no significant differences”, the “Gallbladder Bile Bile salts” value ([2]; Chow + Ezetimibe) was 65.00 mmol/L and the “Gallbladder Bile Cholesterol” value ([2]; Chow + Ezetimibe) was 1.19 mmol/L. The “Gallbladder Bile Colesterol Saturation Index” value ([2]; Chow + Ezetimibe) was 51.7%, the “Gallbladder Bile Phospholipids” value ([2]; Chow + Ezetimibe) was 11.62 mmol/L and the “Gallbladder Bile Bile salts” value ([2]; Lithogenic + Ezetimibe) was 70.37 mmol/L. The “Gallbladder Bile Cholesterol” value ([2]; Lithogenic + Ezetimibe) was 1.35 mmol/L, the “Gallbladder Bile Colesterol Saturation Index” value ([2]; Lithogenic + Ezetimibe) was 53.2% and the “Gallbladder Bile Phospholipids” value ([2]; Lithogenic + Ezetimibe) was 12.92 mmol/L. For the same compound, the “changes in cholesterol content, bile salts or lecitine in gallbladder bile” value ([2]; control diet) was “did not induce significant changes”, the “cholesterol saturation index, with vs without Ezetimibe” value ([2]; control diet) was “similar” and the “decrease of cholesterol content in the gallbladder bile” value ([2]; lithogenic diet) was 50-60%. The “reduction in the cholesterol saturation index” value ([2]; lithogenic diet) was 50%, the “increase in glutathione secretion vs lithogenic diet only (significant)” value [3] was 200% and the “hepatic expression of GGCS, lithogenic diet plus Ezetimibe vs lithogenic diet” value [4] was “no significant differences”.
